Results from US20120065063A1, “3-Aryl-4-(2,6-dimethylbenzylidene)isoxazol-5(4H)-ones as Fungicides” (Bayer CropScience AG, priority 2010, published 2012).

System: Sphaerotheca fuliginea
Experiment: Sphaerotheca test (cucumber)/protective
Format: in vivo
Settings: protective, 500 ppm, evaluation 7 days after inoculation
Description: Sphaerotheca Test (Cucumber)/Protective [table] To produce an appropriate active compound formulation, 1 part by weight of active compound is mixed with the specified amounts of solvent and emulsifier, and the concentrate is diluted with water to the desired concentration. To test for protective activity, young cucumber plants are sprayed with the preparation of active compound at the stated application rate. 1 day after the treatment, the plants are inoculated with a spore suspension of Sphaerotheca fuliginea. The plants are then placed in a greenhouse at 70% relative atmospheric humidity and a temperature of 23° C.

| SMILES | efficacy [%] |
| --- | --- |
| O=C1ON=C(c2ccccc2)C1=Cc1ccccc1 [Compound A-1] | 30 |

System: Blumeria graminis f.sp. tritici
Experiment: Blumeria test (wheat)/protective
Format: in vivo
Settings: protective, 1000 ppm, evaluation 7 days after inoculation
Description: Blumeria Test (Wheat)/Protective [table] To produce an appropriate active compound formulation, I part by weight of active compound is mixed with the specified amounts of solvent and emulsifier, and the concentrate is diluted with water to the desired concentration. To test for protective activity, young plants are sprayed with the preparation of active compound at the stated application rate. After the spray coating has dried on, the plants are dusted with spores of Blumeria graminis f.sp. tritici.

| SMILES | efficacy [%] |
| --- | --- |
| O=C1ON=C(c2ccccc2)C1=Cc1ccccc1 [Compound A-1] | 29 |

System: Alternaria solani
Experiment: Alternaria test (tomato)/protective
Format: in vivo
Settings: protective, 500 ppm, evaluation 7 days after inoculation
Description: Alternaria Test (Tomato)/Protective [table] To produce an appropriate active compound formulation, 1 part by weight of active compound is mixed with the specified amounts of solvent and emulsifier, and the concentrate is diluted with water to the desired concentration. To test for protective activity, young tomato plants are sprayed with the preparation of active compound at the stated application rate. 1 day after the treatment, the plants are inoculated with a spore suspension of Alternaria solani and then remain at 100% relative humidity and 20° C. for 24 h. The plants then remain at 96% relative atmospheric humidity and a temperature of 20° C.

| SMILES | efficacy [%] |
| --- | --- |
| O=C1ON=C(c2ccccc2)C1=Cc1ccccc1 [Compound A-1] | 0 |

System: not listed separately
Experiment: log P by HPLC on reversed-phase columns (EEC directive 79/831 Annex V.A8)
Format: physicochemical
Settings: acidic range pH 2.7, 0.1% aqueous formic acid/acetonitrile
Description: The log P values were measured according to EEC directive 79/831 Annex V.A8 by HPLC (High Performance Liquid Chromatography) on reversed-phase columns (C 18), using the method below:
The determination was carried out in the acidic range at pH 2.7 using the mobile phases 0.1% aqueous formic acid and acetonitrile; linear gradient from 10% acetonitrile to 95% acetonitrile.

| SMILES | log P |
| --- | --- |
| Cc1cc(C)c(C=C2C(=O)ON=C2c2ccc(OC(C)C)cc2)c(C)c1 [Compound I-62] | 4.70 |
| Cc1cc(C)c(C=C2C(=O)ON=C2c2ccc(C)c(C)c2)c(C)c1 [Compound I-49] | 4.81 |
| Cc1ccc(C2=NOC(=O)C2=Cc2c(C)cc(C)cc2C)cc1 [Compound I-66] | 4.44 |
| Cc1cc(C)c(C=C2C(=O)ON=C2c2ccc(OCc3ccccc3)cc2)c(C)c1 [Compound I-64] | 5.01 |
| Cc1cc(C)c(C=C2C(=O)ON=C2c2ccccc2F)c(C)c1 [Compound I-23] | 4.07 |
| Cc1cc(C)c(C=C2C(=O)ON=C2c2cccc([N+](=O)[O-])c2)c(C)c1 [Compound I-46] | 3.85 |
| Cc1cc(C)c(C=C2C(=O)ON=C2c2ccccc2OCc2ccccc2)c(C)c1 [Compound I-30] | 4.86 |
| Cc1ccc(C2=NOC(=O)C2=Cc2c(C)cccc2C)cc1C [Compound I-50] | 4.41 |
| Cc1cc(C)c(C=C2C(=O)ON=C2c2ccc(Cl)c(Cl)c2)c(C)c1 [Compound I-57] | 4.95 |
| Cc1cccc(C)c1C=C1C(=O)ON=C1c1ccccc1Cl [Compound I-29] | 3.97 |
| Cc1cc(C)c(C=C2C(=O)ON=C2c2cccc(F)c2)c(C)c1 [Compound I-55] | 4.15 |
| CCOc1ccc(C2=NOC(=O)C2=Cc2c(C)cc(C)cc2C)cc1 [Compound I-69] | 4.46 |
| Cc1cc(C)cc(C2=NOC(=O)C2=Cc2c(C)cc(C)cc2C)c1 [Compound I-48] | 4.88 |
| CCOc1ccccc1C1=NOC(=O)C1=Cc1c(C)cccc1C [Compound I-27] | 4.00 |
| Cc1cc(C)c(C=C2C(=O)ON=C2c2ccc(C(C)(C)C)cc2)c(C)c1 [Compound I-61] | 5.43 |
| COc1ccc(C2=NOC(=O)C2=Cc2c(C)cc(C)cc2C)cc1OC [Compound I-54] | 4.09 |
| Cc1cc(C)c(C=C2C(=O)ON=C2c2cc(F)ccc2F)c(C)c1 [Compound I-36] | 4.12 |
| Cc1cc(C)c(C=C2C(=O)ON=C2c2cccc(C(F)(F)F)c2)c(C)c1 [Compound I-45] | 4.62 |
| COc1cc(OC)cc(C2=NOC(=O)C2=Cc2c(C)cc(C)cc2C)c1 [Compound I-53] | 4.21 |
| Cc1cccc(C)c1C=C1C(=O)ON=C1c1ccccc1 [Compound I-52] | 3.68 |

| SMILES | log P |
| --- | --- |
| Cc1cc(C)c(C=C2C(=O)ON=C2c2cc(F)ccc2Cl)c(C)c1 [Compound I-38] | 4.42 |
| Cc1cc(C)c(C=C2C(=O)ON=C2c2ccccc2SC(F)F)c(C)c1 [Compound I-32] | 4.27 |
| Cc1cc(C)c(C=C2C(=O)ON=C2c2ccccc2)c(C)c1 [Compound I-13] | 4.01 |
| Cc1cccc(C)c1C=C1C(=O)ON=C1c1cc(F)ccc1F [Compound I-37] | 3.77 |
| Cc1cc(C)c(C=C2C(=O)ON=C2c2ccc(-c3ccccc3)cc2)c(C)c1 [Compound I-63] | 5.16 |
| Cc1cccc(C2=NOC(=O)C2=Cc2c(C)cccc2C)c1C [Compound I-12] | 4.26 |
| Cc1cc(C)c(C=C2C(=O)ON=C2c2ccccc2OC(F)(F)F)c(C)c1 [Compound I-2] | 4.59 |
| CCOc1ccccc1C1=NOC(=O)C1=Cc1c(C)cc(C)cc1C [Compound I-26] | 4.42 |
| Cc1cccc(C)c1C=C1C(=O)ON=C1c1cccc(Cl)c1Cl [Compound I-34] | 4.31 |
| COc1cccc(C2=NOC(=O)C2=Cc2c(C)cccc2C)c1OC [Compound I-20] | 3.73 |
| COc1cccc(C2=NOC(=O)C2=Cc2c(C)cc(C)cc2C)c1OC [Compound I-16] | 4.08 |
| Cc1ccccc1C1=NOC(=O)C1=Cc1c(C)cccc1C [Compound I-9] | 3.95 |
| COc1cccc(OC)c1C1=NOC(=O)C1=Cc1c(C)cc(C)cc1C [Compound I-15] | 3.95 |
| Cc1cc(C)c(C=C2C(=O)ON=C2c2cc(Cl)cc(Cl)c2)c(C)c1 [Compound I-58] | 5.01 |
| Cc1cccc(C)c1C=C1C(=O)ON=C1c1cc(Br)ccc1Br [Compound I-44] | 4.57 |
| Cc1cccc(C)c1C=C1C(=O)ON=C1c1cc(F)ccc1Cl [Compound I-39] | 3.96 |
| Cc1cc(C)c(C=C2C(=O)ON=C2c2ccc([N+](=O)[O-])cc2)c(C)c1 [Compound I-65] | 3.99 |
| Cc1cccc(C)c1C=C1C(=O)ON=C1c1ccccc1[N+](=O)[O-] [Compound I-4] | 3.40 |
| COc1ccc(F)cc1C1=NOC(=O)C1=Cc1c(C)cc(C)cc1C [Compound I-17] | 4.12 |
| Cc1cc(C)c(C=C2C(=O)ON=C2c2ccccc2I)c(C)c1 [Compound I-22] | 4.51 |

| SMILES | log P |
| --- | --- |
| Cc1cc(C)cc(C2=NOC(=O)C2=Cc2c(C)cccc2C)c1 [Compound I-51] | 4.49 |
| Cc1cccc(C)c1C=C1C(=O)ON=C1c1ccccc1OCc1ccccc1 [Compound I-31] | 4.51 |
| COc1ccc(F)cc1C1=NOC(=O)C1=Cc1c(C)cccc1C [Compound I-21] | 3.75 |
| Cc1cc(C)c(C=C2C(=O)ON=C2c2ccc(Cl)cc2Cl)c(C)c1 [Compound I-35] | 4.94 |
| Cc1cc(C)c(C=C2C(=O)ON=C2c2cc(Br)ccc2Br)c(C)c1 [Compound I-43] | 5.05 |
| Cc1cccc(C)c1C=C1C(=O)ON=C1c1cc(Br)ccc1Cl [Compound I-42] | 4.46 |
| Cc1cccc(C2=NOC(=O)C2=Cc2c(C)cc(C)cc2C)c1 [Compound I-47] | 4.45 |
| Cc1cc(C)c(C=C2C(=O)ON=C2c2ccccc2[N+](=O)[O-])c(C)c1 [Compound I-3] | 3.76 |
| Cc1cc(C)c(C=C2C(=O)ON=C2c2cc(Br)ccc2Cl)c(C)c1 [Compound I-41] | 4.83 |
| Cc1cc(C)c(C=C2C(=O)ON=C2c2cccc(Cl)c2)c(C)c1 [Compound I-56] | 4.48 |
| Cc1cc(C)c(C=C2C(=O)ON=C2c2ccc(C(F)(F)F)cc2)c(C)c1 [Compound I-59] | 4.62 |
| Cc1cc(C)c(C=C2C(=O)ON=C2c2ccccc2Cl)c(C)c1 [Compound I-28] | 4.38 |
| Cc1cc(C)c(C=C2C(=O)ON=C2c2ccc(OC(F)(F)F)cc2)c(C)c1 [Compound I-60] | 4.73 |
| Cc1cc(C)c(C=C2C(=O)ON=C2c2cccc(C)c2C)c(C)c1 [Compound I-8] | 4.68 |
| COc1ccc(C2=NOC(=O)C2=Cc2c(C)cc(C)cc2C)cc1 [Compound I-67] | 4.00 |
| Cc1cc(C)c(C=C2C(=O)ON=C2c2cc(Cl)ccc2Cl)c(C)c1 [Compound I-40] | 4.71 |
| Cc1cc(C)c(C=C2C(=O)ON=C2c2ccccc2C(F)(F)F)c(C)c1 [Compound I-1] | 4.34 |
| Cc1cc(C)c(C=C2C(=O)ON=C2c2cccc(Cl)c2Cl)c(C)c1 [Compound I-33] | 4.80 |

Same assay, conditions: reversed-phase HPLC column (C18), preparation examples, acidic range pH 2.7, formic acid, read-out: log P (HCOOH)

| SMILES | chromatographic logP |
| --- | --- |
| Cc1cc(C)c(/C=C2\C(=O)ON=C2c2cccc(C(F)(F)F)c2)c(C)c1 [Compound 1-59, 4-(2,4,6-trimethylbenzylidene)-3-(3-trifluoromethylphenyl)-1,2-oxazol-5(4H)-one] | 4.62 |
| COC(=O)CC(=O)c1cccc(C(F)(F)F)c1 [methyl 3-trifluoromethylbenzoylacetate] | 2.57 |
| COc1ccccc1C1=NOC(=O)/C1=C\c1c(C)cccc1C [Compound I-18, 4-(2,6-dimethylbenzylidene)-3-(2-methoxyphenyl)-1,2-oxazol-5(4H)-one] | 3.69 |
| O=C1CC(c2cccc(C(F)(F)F)c2)=NO1 [3-(3-trifluoromethylphenyl)isoxazol-5(4H)-one] | 2.4 |
| O=C1CC(c2ccc(F)cc2)=NO1 [3-(4-fluorophenyl)isoxazol-5(4H)-one] | 1.74 |
| COc1ccccc1C1=NOC(=O)C1 [3-(2-methoxyphenyl)isoxazol-5(4H)-one] | 1.67 |
| Cc1cc(C)c(/C=C2\C(=O)ON=C2c2ccc(F)cc2)c(C)c1 [Compound I-68, 4-(2,4,6-trimethylbenzylidene)-3-(4-fluorophenyl)-1,2-oxazol-5(4H)-one] | 4.08 |
